Values quoted from earlier work, collected in US20230218627A1, “PRESERVATIVE FREE PHARMACEUTICAL COMPOSITION FOR OPHTHALMIC ADMINISTRATION COMPRISING BRIMONIDINE” (PHARMATHEN S.A., priority 2020, published 2023).

Legend:
[1] = test system: alpha-2 adrenergic receptor

selectivity for the alpha-2 adrenergic receptor than the alpha-1 adrenergic receptor [1] | solubility in ethanol (ethanol) | solubility in water (water) | Compound
1000 fold |  |  | Brc1c(NC2=NCCN2)ccc2nccnc12 [Brimonidine]
 | soluble | soluble | CC(C)(C)NC[C@H](O)COc1nsnc1N1CCOCC1.O=C(O)/C=C\C(=O)O [Timolol maleate, (2S)-1-[(1,1-Dimethylethyl)amino]-3-[[4-(morpholin-4-yl)-1,2,5-thiadiazol-3-yl]oxy]propan-2-ol (Z)-butenedioate]
